Measured values published in US11666600B2, “Methods for culturing and/or differentiating hematopoietic stem cells into progenitors and uses thereof” (HEMA-QUEBEC, priority 2015, dated 2023).

Columns and labels:
[1] = tested on: aryl hydrocarbon receptor (AhR) pathway; conditions: Fares et al., 2014; cited from earlier work
[2] = tested on: Human G-CSF-mobilized peripheral blood CD34+ cells; assay: Expansion of CD34+/CD41+ megakaryocytic progenitors from mobilized peripheral blood CD34+ cells; format: cell-based; conditions: 39° C. + PIC 35 nM; 14 days; SFEM + BS1; FIG. 5
Protocol: (§1) Human bone marrow and G-CSF-mobilized peripheral blood CD34+ cells were purchased from AllCells.
(§2) Human CD34+-enriched cells (purity 90%) were seeded in 24-well plates at 100 000 cells/mL in expansion medium consisting of either (1) StemSpan™ ACF (ACF; […] Technologies) supplemented with the OMPC cytokine cocktail (Robert et al., 2011), or (2) StemSpan™ SFEM ([…] Technologies) supplemented with the BS1 megakaryocyte expansion and differentiation cocktail (Cortin et al., 2005). OMPC consists of 35 ng/mL thrombopoietin (TPO; Feldan Therapeutics), 10 ng/mL stem cell factor (SCF; Peprotech), and 11 ng/mL human FMS-like tyrosine kinase 3 ligand (FLT3, Peprotech). […]
(§3) Cellular counts and viability were determined by adding Solution 18 (Acridine Orange and DAPI solution, ChemomMetec) and using NucleoCounter™ NC-250 for detection (ChemomMetec).
(§4) For cells expanded in conditions favoring differentiation towards the MK lineage, surface markers were detected using the following antibodies: CD34-FITC, CD41a-APC and CD42b-PE. […] All samples were analyzed on an Accuri™ C6 flow cytometer (BD Biosciences), and raw data were analyzed with FCS Express 5 Flow Research Edition software from at least 15 000 viable cell events acquired for each sample. […]
(§5) Cellular counts and viability were determined as described in Example 6.5.

[3] = tested on: Human bone marrow CD34+ cells; assay: Expansion of CD34+/CD41+ megakaryocytic progenitors from bone marrow CD34+ cells; format: cell-based; conditions: 39° C. + PIC 35 nM; 14 days; SFEM + BS1; FIG. 6
Protocol: as §1, §2, §3, §4, §5

[4] = tested on: CD34+/CD45RA− mobilized peripheral blood cells; conditions: Fares et al., 2014; cited from earlier work
[5] = tested on: CD34+ cells from human umbilical cord blood; assay: CD34+ cell culture and expansion while limiting differentiation (StemSpan ACF + CC110), flow cytometry; format: cell-based
Protocol: CD34+ cells were isolated from human umbilical cord blood by positive selection according to standard procedures. Purified CD34+ cells from either single units or pooled from several units of cord blood were seeded in 1 mL of the appropriate culture medium in 24-well plates at a density of approximately 10^5 cells/mL. Cells were maintained at a density of 10^5-10^6 cells/mL throughout the culture by dilution and/or medium replacement.
For CD34+ cell culture and expansion while limiting differentiation, cells were grown in StemSpan™-ACF medium ([…]™ Technologies) supplemented with StemSpan™ CC110 cytokine cocktail ([…]™ Technologies), and counted on days 4, 7, 10, 14, 17, and 21.
Cell counts and viability were measured using the NucleoCounter NC-250™ Viability and Cell Count Assay system (ChemoMetec Inc., Davis, Calif.), according to the manufacturer's instructions.
Cell phenotypes were determined by flow cytometry on the indicated days using the following panel of labeled primary antibodies: CD34-FITC, CD45RA-APC, CD41a-APC, CD42b-PE, and CD235-PE.
CD34+ cells were isolated and cultured in a medium suitable for maintaining their self-renewal while limiting their differentiation into progenitors (StemSpan™ ACF supplemented with StemSpan™ CC110 cytokine cocktail, as described in Example 1.2).
Cell phenotypic profiles of the expanded CD34+ cells were determined on days 4, 7, 10, 14, 17, and 21 by flow cytometry as described in Example 1.3.

[6] = tested on: CD34+ cells from human umbilical cord blood; assay: CFU-MK assay (Megacult C) on cells grown in ACF + BS1; format: cell-based; conditions: 39° C. + PIC 35 nM; FIG. 2
Protocol: Aliquots of cells grown in StemSpan™ ACF+BS1 culture medium were collected on the indicated days, and CFU-MK were determined using the Megacult™ C kit from […]™ Technologies, according to the manufacturer's instructions.

Cl.Cn1nnc(-c2ccc3c(c2)[nH]c2nc(Cc4ccccc4)nc(N[C@H]4CC[C@H](N)CC4)c23)n1 [PIC, (1r,4r)-N1-(2-benzyl-7-(2-methyl-2H-tetrazol-5-yl)-9H-pyrimido[4,5-b]indol-4-yl)cyclohexane-1,4-diamine hydrochloride]
suppression of the aryl hydrocarbon receptor (AhR) pathway [1]: without acting as suppressors
combined use of mild hyperthermia and PIC on expansion of CD34+/CD41+ cells [2]: synergistic effect
combined use of mild hyperthermia and PIC on expansion of CD34+/CD41+ cells [3]: synergistic effect
expansion of CD34+/CD45RA− mobilized peripheral blood cells (enriched in LT-HSCs) [4]: stimulate expansion
expansion of CD34+/CD45RA− LT-HSCs ([5]; 39° C. + PIC 35 nM, FIG. 3B): potently enhanced
Percentage of cells bearing CD34+ ([5]; Day 4, 37° C. + PIC 35 nM): 97.91%
Percentage of cells bearing CD34+/CD41+ ([5]; Day 4, 37° C. + PIC 35 nM): 12.51%
Percentage of cells bearing CD34+/CD235+ ([5]; Day 4, 37° C. + PIC 35 nM): 4.83%
Percentage of cells bearing CD41+ ([5]; Day 4, 37° C. + PIC 35 nM): 12.53%
Percentage of cells bearing CD42+ ([5]; Day 4, 37° C. + PIC 35 nM): 1.08%
Percentage of cells bearing CD45RA+ ([5]; Day 4, 37° C. + PIC 35 nM): 65.34%
Percentage of cells bearing CD235+ ([5]; Day 4, 37° C. + PIC 35 nM): 4.87%
Percentage of cells bearing CD34+ ([5]; Day 4, 39° C. + PIC 35 nM): 94.74%
Percentage of cells bearing CD34+/CD41+ ([5]; Day 4, 39° C. + PIC 35 nM): 8.37%
Percentage of cells bearing CD34+/CD235+ ([5]; Day 4, 39° C. + PIC 35 nM): 3.65%
Percentage of cells bearing CD41+ ([5]; Day 4, 39° C. + PIC 35 nM): 9.05%
Percentage of cells bearing CD42+ ([5]; Day 4, 39° C. + PIC 35 nM): 2.21%
Percentage of cells bearing CD45RA+ ([5]; Day 4, 39° C. + PIC 35 nM): 57.92%
Percentage of cells bearing CD235+ ([5]; Day 4, 39° C. + PIC 35 nM): 4.11%
Percentage of cells bearing CD34+ ([5]; Day 7, 37° C. + PIC 35 nM): 94.61%
Percentage of cells bearing CD34+/CD41+ ([5]; Day 7, 37° C. + PIC 35 nM): 15.74%
Percentage of cells bearing CD34+/CD235+ ([5]; Day 7, 37° C. + PIC 35 nM): 5.28%
Percentage of cells bearing CD41+ ([5]; Day 7, 37° C. + PIC 35 nM): 15.93%
Percentage of cells bearing CD42+ ([5]; Day 7, 37° C. + PIC 35 nM): 1.30%
Percentage of cells bearing CD45RA+ ([5]; Day 7, 37° C. + PIC 35 nM): 80.07%
Percentage of cells bearing CD34+ ([5]; Day 7, 39° C. + PIC 35 nM): 88.27%
Percentage of cells bearing CD34+/CD41+ ([5]; Day 7, 39° C. + PIC 35 nM): 16.17%
Percentage of cells bearing CD34+/CD235+ ([5]; Day 7, 39° C. + PIC 35 nM): 9.68%
Percentage of cells bearing CD41+ ([5]; Day 7, 39° C. + PIC 35 nM): 18.12%
Percentage of cells bearing CD42+ ([5]; Day 7, 39° C. + PIC 35 nM): 2.92%
Percentage of cells bearing CD45RA+ ([5]; Day 7, 39° C. + PIC 35 nM): 74.14%
Percentage of cells bearing CD235+ ([5]; Day 7, 39° C. + PIC 35 nM): 10.89%
Percentage of cells bearing CD34+ ([5]; Day 10, 37° C. + PIC 35 nM): 84.26%
Percentage of cells bearing CD34+/CD41+ ([5]; Day 10, 37° C. + PIC 35 nM): 12.94%
Percentage of cells bearing CD34+/CD235+ ([5]; Day 10, 37° C. + PIC 35 nM): 2.16%
Percentage of cells bearing CD41+ ([5]; Day 10, 37° C. + PIC 35 nM): 14.19%
Percentage of cells bearing CD42+ ([5]; Day 10, 37° C. + PIC 35 nM): 0.48%
Percentage of cells bearing CD45RA+ ([5]; Day 10, 37° C. + PIC 35 nM): 88.37%
Percentage of cells bearing CD235+ ([5]; Day 10, 37° C. + PIC 35 nM): 2.33%
Percentage of cells bearing CD34+ ([5]; Day 10, 39° C. + PIC 35 nM): 71.28%
Percentage of cells bearing CD34+/CD41+ ([5]; Day 10, 39° C. + PIC 35 nM): 20.80%
Percentage of cells bearing CD34+/CD235+ ([5]; Day 10, 39° C. + PIC 35 nM): 7.94%
Percentage of cells bearing CD41+ ([5]; Day 10, 39° C. + PIC 35 nM): 27.40%
Percentage of cells bearing CD42+ ([5]; Day 10, 39° C. + PIC 35 nM): 1.35%
Percentage of cells bearing CD45RA+ ([5]; Day 10, 39° C. + PIC 35 nM): 82.34%
Percentage of cells bearing CD235+ ([5]; Day 10, 39° C. + PIC 35 nM): 9.36%
Percentage of cells bearing CD34+ ([5]; Day 14, 37° C. + PIC 35 nM): 58.28%
Percentage of cells bearing CD34+/CD41+ ([5]; Day 14, 37° C. + PIC 35 nM): 9.55%
Percentage of cells bearing CD34+/CD45RA− ([5]; Day 14, 37° C. + PIC 35 nM): 15.22%
Percentage of cells bearing CD34+/CD235+ ([5]; Day 14, 37° C. + PIC 35 nM): 1.39%
Percentage of cells bearing CD41+ ([5]; Day 14, 37° C. + PIC 35 nM): 15.16%
Percentage of cells bearing CD42+ ([5]; Day 14, 37° C. + PIC 35 nM): 0.19%
Percentage of cells bearing CD45RA+ ([5]; Day 14, 37° C. + PIC 35 nM): 84.63%
Percentage of cells bearing CD235+ ([5]; Day 14, 37° C. + PIC 35 nM): 2.10%
Percentage of cells bearing CD34+ ([5]; Day 14, 39° C. + PIC 35 nM): 48.58%
Percentage of cells bearing CD34+/CD41+ ([5]; Day 14, 39° C. + PIC 35 nM): 13.88%
Percentage of cells bearing CD34+/CD45RA− ([5]; Day 14, 39° C. + PIC 35 nM): 19.74%
Percentage of cells bearing CD34+/CD235+ ([5]; Day 14, 39° C. + PIC 35 nM): 3.72%
Percentage of cells bearing CD41+ ([5]; Day 14, 39° C. + PIC 35 nM): 32.04%
Percentage of cells bearing CD42+ ([5]; Day 14, 39° C. + PIC 35 nM): 1.16%
Percentage of cells bearing CD45RA+ ([5]; Day 14, 39° C. + PIC 35 nM): 81.97%
Percentage of cells bearing CD34+ ([5]; Day 17, 37° C. + PIC 35 nM): 48.29%
Percentage of cells bearing CD34+/CD41+ ([5]; Day 17, 37° C. + PIC 35 nM): 9.75%
Percentage of cells bearing CD34+/CD45RA− ([5]; Day 17, 37° C. + PIC 35 nM): 13.58%
Percentage of cells bearing CD34+/CD235+ ([5]; Day 17, 37° C. + PIC 35 nM): 0.52%
Percentage of cells bearing CD41+ ([5]; Day 17, 37° C. + PIC 35 nM): 24.70%
Percentage of cells bearing CD42+ ([5]; Day 17, 37° C. + PIC 35 nM): 0.63%
Percentage of cells bearing CD45RA+ ([5]; Day 17, 37° C. + PIC 35 nM): 87.89%
Percentage of cells bearing CD235+ ([5]; Day 17, 37° C. + PIC 35 nM): 3.94%
differentiation of the cells towards the megakaryocytic and erythroid (CD235+) lineages ([5]; combined mild hyperthermia (39° C.) and PIC 35 nM): did not lead to an enhanced differentiation
combined effect of mild hyperthermia and PIC on the number of CFU-MK [6]: synergized
